Test [1] deals with MCF7 (HER2^neg 2+/ER^pos). Kind of test: Alamar Blue metabolic activity assay. Particulars: 72 hours. Format: cell-based, human. On the procedure: (§1) Breast cancer cell lines, SKBR3 (HER2^pos/ER^neg) and MCF7 (HER2^neg 2+/ER^pos), were treated with Th1 cytokines (IFNγ and TNFα), a tamoxifen metabolite (4-hydroxytamoxifen, “4HT”), or both for 72 hours. Metabolic activity was measured via Alamar Blue assay.
On the technique in general: Alamar Blue is a resazurin reagent that responds to reducing activity.

The next test concerns SKBR3 (HER2^pos/ER^neg). Put plainly: Alamar Blue metabolic activity assay. Type of test: cell-based, human. Particulars: 72 hours. On the procedure: as §1
In test [2] the test system is BRAF^V600EPTEN^−/− melanoma. Put plainly: Transplantable melanoma model: tumor growth and survival. Format: in vivo, mice. Particulars: administered alone.
Method: A transplantable BRAF^V600EPTEN^−/− melanoma model was developed in the C57Bl/6 background. DC1 were generated from bone marrow precursors using Flt3, IL-6, GM-CSF, IL-4, CpG and LPS, and pulsed with class I BRAF^V600E peptide. In addition to untreated and ovalbumin-DC1 controls, BRAF^V600E-DC1 (2× weekly injections) and PLX were administered alone or in designated combinations to tumor-bearing mice (n=10 each). Tumor growth and survival were determined.

For 4-hydroxytamoxifen [4HT], the “anti-tumor activity / metabolic activity” value in test [1] is reported as “did not increase anti-tumor activity”; in the test with SKBR3 (HER2^pos/ER^neg) it was “not in response to anti-estrogen treatment”. Molecule `CCCS(=O)(=O)Nc1ccc(F)c(C(=O)c2c[nH]c3ncc(-c4ccc(Cl)cc4)cc23)c1F` [PLX, vemurafenib] registered a median survival in test [2] of 43.5 days.

Source of the values: patent US20170216421A1, “MANUFACTURING OF MULTI-DOSE INJECTION READY DENDRITIC CELL VACCINES, COMBINATION THERAPIES FOR BLOCKING HER2 AND HER3, AND ESTROGEN RECEPTOR POSITIVE HER2 BREAST RECEPTOR POSITIVE HER2 BREAST CANCER THERAPY” (THE TRUSTEES OF THE UNIVERSITY OF PENNSYLVANIA, priority 2015, published 2017).
